Reference: patent US20230219911A1, “BENZOTHIAZOLE DERIVATIVES AND USES THEREOF” (SHENYANG PHARMACEUTICAL UNIVERSITY, priority 2020, published 2023)

molecular target: T1, sEH enzyme (human recombinant) (Homo sapiens, UniProt P34913); experiment: in vitro sEH enzyme activity by fluorescence analysis, single concentration inhibition; type: biochemical; conditions: compound 0.1 μM; human recombinant sEH; PHOME substrate; 37° C. 15 min; read-out: sEH % inhibition, @ 0.1 μM
T1 construct: purchased Cayman Chemical
T1 sequence (P34913 1-555): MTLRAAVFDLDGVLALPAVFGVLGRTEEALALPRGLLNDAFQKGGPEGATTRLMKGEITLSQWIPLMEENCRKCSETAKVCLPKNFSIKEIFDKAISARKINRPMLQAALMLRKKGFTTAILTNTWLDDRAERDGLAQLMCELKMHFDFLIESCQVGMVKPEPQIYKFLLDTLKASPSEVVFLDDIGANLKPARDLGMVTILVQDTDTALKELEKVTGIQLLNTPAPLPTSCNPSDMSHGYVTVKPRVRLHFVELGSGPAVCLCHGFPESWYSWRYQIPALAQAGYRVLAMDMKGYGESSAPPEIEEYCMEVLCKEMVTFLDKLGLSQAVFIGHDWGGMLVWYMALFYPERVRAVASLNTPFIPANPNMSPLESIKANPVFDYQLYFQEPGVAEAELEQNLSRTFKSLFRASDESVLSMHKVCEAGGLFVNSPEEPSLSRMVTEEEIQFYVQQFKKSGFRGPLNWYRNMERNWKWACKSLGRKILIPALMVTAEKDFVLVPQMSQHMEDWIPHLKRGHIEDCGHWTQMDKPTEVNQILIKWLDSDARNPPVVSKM
Method: The benzothiazole skeleton compounds (concentration: 0.1 μM) according to the above formula I of the present invention were tested for the in vitro sEH enzyme activity by fluorescence analysis.
12 μL of sEH enzyme (human recombinant, 0.5 mg/mL, Cayman Chemical) was diluted with 588 μL of buffer (25 mM bis-Tris, pH 7.0). The fluorescent substrate was PHOME (cyano-(6-methoxy-naphthalen-2-yl)-methyl (3-phenyl-oxiranyl)-acetate) in DMSO (10 μM, Cayman Chemical). The compound to be tested was dissolved in 100% DMSO at a concentration of 4 μM. 185 μL of buffer (25 mM bis-Tris, pH 7.0), 5 μL of compound solution, and 5 μL of diluted sEH enzyme were added to the wells of a 96-well plate, and finally 5 μL of substrate solution was added to initiate the reaction. After incubating at 37° C. for 15 min, the fluorescence signal was measured with a microplate reader (excitation wavelength 330 nm, emission wavelength 465 nm).
Inhibition (%)=(F0−F1)/(F0)×100.

Structure (SMILES) | inhibition at 0.1 µM [%]
CC(=O)c1ccc(NC(=O)N(CCN2CCOCC2)c2ccc3nc(N)sc3c2)cc1 [Example 9, 1-(2-aminobenzo[d]thiazol-6-yl)-1-[2-(4-morpholinyl)ethyl]-3-(4-acetylphenyl)urea] | 28.2
Nc1nc2ccc(N(CCN3CCOCC3)C(=O)Nc3ccc([N+](=O)[O-])cc3)cc2s1 [Example 8, 1-(2-aminobenzo[d]thiazol-6-yl)-1-[2-(4-morpholinyl)ethyl]-3-(4-nitrophenyl)urea] | 19.2
NC(=O)Nc1ccc2nc(N)sc2c1 [Example 2, 1-(2-aminobenzo[d]thiazol-6-yl)urea] | 11.7
O=C(Nc1nc2ccc(N(CCN3CCOCC3)C(=O)Nc3ccc(Cl)cc3)cc2s1)c1ccccc1 [Example 32, 1-(2-phenylformamidobenzo[d]thiazol-6-yl)-1-[2-(4-morpholinyl)ethyl]-3-(4-chlorophenyl)urea] | 77.6
CCOC(=O)Nc1nc2ccc(N(CCN3CCOCC3)C(=O)Nc3ccc(Cl)cc3)cc2s1 [Example 28, 1-[2-(2-ethoxyformamido)benzo[d]thiazol-6-yl]-1-[2-(4-morpholinyl)ethyl]-3-(4-chlorophenyl)urea] | 90.5
CC(C)(C)OC(=O)Nc1nc2ccc(N(CCN3CCOCC3)C(=O)Cc3ccc(Cl)cc3)cc2s1 [Example 31, tert-butyl (6-{2-(4-chlorophenyl)-N-[2-(4-morpholinyl)ethyl]acetamido}benzo[d]thiazol-2-yl)carbamate] | 70.9
Nc1nc2ccc(N(CCN3CCCC3)C(=O)Nc3ccc(Cl)cc3)cc2s1 [Example 24, 1-(2-aminobenzo[d]thiazol-6-yl)-1-[2-(pyrrolidin-1-yl)ethyl]-3-(4-chlorophenyl)urea] | 28.4
Nc1nc2ccc(N(CCN3CCOCC3)C(=O)Nc3ccccn3)cc2s1 [Example 14, 1-(2-aminobenzo[d]thiazol-6-yl)-1-[2-(4-morpholinyl)ethyl]-3-(pyridin-2-yl)urea] | 16.2
CC1CCN(CCN(C(=O)Nc2ccc(Cl)cc2)c2ccc3nc(N)sc3c2)CC1 [Example 22, 1-(2-aminobenzo[d]thiazol-6-yl)-1-[2-(4-methylpiperidin-1-yl)ethyl]-3-(4-chlorophenyl)urea] | 67.5
Nc1nc2ccc(N(CCN3CCOCC3)C(=O)Nc3cccc4ccccc34)cc2s1 [Example 15, 1-(2-aminobenzo[d]thiazol-6-yl)-1-[2-(4-morpholinyl)ethyl]-3-(naphthalen-1-yl)urea] | 39
O=C(CCc1ccccc1)Nc1nc2ccc(N(CCN3CCOCC3)C(=O)Nc3ccc(Cl)cc3)cc2s1 [Example 33] | 15.8
CCN(CC)CCN(C(=O)Nc1ccc(Cl)cc1)c1ccc2nc(N)sc2c1 [Example 21, 1-(2-aminobenzo[d]thiazol-6-yl)-1-[2-(N,N-diethylamino)ethyl]-3-(4-chlorophenyl)urea] | 86.2
Nc1nc2ccc(NC(=O)Nc3ccccc3)cc2s1 [Example 3, 1-(2-aminobenzo[d]thiazol-6-yl)-3-phenylurea] | 32.9
Nc1nc2ccc(N(CCCN3CCOCC3)C(=O)Nc3ccc(Cl)cc3)cc2s1 [Example 26, 1-(2-aminobenzo[d]thiazol-6-yl)-1-[3-(4-morpholinyl)propyl]-3-(4-chlorophenyl)urea] | 36.5
CC(C)Oc1ccc(NC(=O)N(CCN2CCOCC2)c2ccc3nc(N)sc3c2)cc1 [Example 19, 1-(2-aminobenzo[d]thiazol-6-yl)-1-[2-(4-morpholinyl)ethyl]-3-(4-isopropoxyphenyl)urea] | 76.6
CN1CCN(CCN(C(=O)Nc2ccc(C(F)(F)F)cc2)c2ccc3nc(N)sc3c2)CC1 [Example 23, 1-(2-aminobenzo[d]thiazol-6-yl)-1-[2-(4-methylpiperazin-1-yl)ethyl]-3-(4-trifluoromethylphenyl)urea] | 43.7
CC(=O)Nc1ccc(NC(=O)N(CCN2CCOCC2)c2ccc3nc(N)sc3c2)cc1 [Example 10, 1-(2-aminobenzo[d]thiazol-6-yl)-1-[2-(4-morpholinyl)ethyl]-3-(4-acetamidophenyl)urea] | 2.16
Nc1nc2ccc(NC(=O)NC3CCCCC3)cc2s1 [Example 6, 1-(2-aminobenzo[d]thiazol-6-yl)-3-cyclohexylurea] | 2.15
CC(C)c1ccc(NC(=O)N(CCN2CCOCC2)c2ccc3nc(N)sc3c2)cc1 [Example 20, 1-(2-aminobenzo[d]thiazol-6-yl)-1-[2-(4-morpholinyl)ethyl]-3-(4-isopropylphenyl)urea] | 75.2
Nc1nc2ccc(NC(=O)NCc3ccc(Cl)cc3)cc2s1 [Example 5, 1-(2-aminobenzo[d]thiazol-6-yl)-3-(4-chlorobenzyl)urea] | 47
Nc1nc2ccc(N(CCN3CCOCC3)C(=O)Nc3ccc(OC(F)(F)F)cc3)cc2s1 [Example 17, 1-(2-aminobenzo[d]thiazol-6-yl)-1-[2-(4-morpholinyl)ethyl]-3-(4-trifluoromethoxyphenyl)urea] | 70.3

Other lines, results leading:

inhibition at 0.1 µM [%] | Structure (SMILES)
41.5 | CCNc1nc2ccc(N(CCN3CCOCC3)C(=O)Nc3ccc(F)cc3)nc2s1 [Example 39, 1-[2-(ethylamino)thiazo[5,4-b]pyridin-5-yl]-1-[2-(4-morpholinyl)ethyl]-3-(4-fluorophenyl)urea]
66.8 | Cc1ccc(NC(=O)N(CCN2CCOCC2)c2ccc3nc(NC(=O)Cc4ccccc4)oc3c2)cc1 [Example 37, 1-(2-phenylacetamidobenzo[d]oxazol-6-yl)-1-[2-(4-morpholinyl)ethyl]-3-(4-methylphenyl)urea]
52.1 | O=C(Nc1nc2cnc(N(CCN3CCOCC3)C(=O)Nc3ccc(OC(F)(F)F)cc3)cc2s1)C1CC1 [Example 42, 1-(2-cyclopropylformamidothiazo[4,5-c]pyridin-6-yl)-1-[2-(4-morpholinyl)ethyl]-3-(4-trifluoromethoxyphenyl)urea]
67.9 | O=C(CCc1ccccc1)Nc1nc2cnc(N(CCN3CCOCC3)C(=O)Nc3cccnc3)nc2s1 [Example 46]
32.5 | O=C(Cc1ccccc1)Nc1nc2ccc(N(CCN3CCOCC3)C(=O)Nc3ccc(C(F)(F)F)cc3)cc2s1 [Example 34, 1-(2-phenylacetamidobenzo[d]thiazol-6-yl)-1-[2-(4-morpholinyl)ethyl]-3-(4-trifluoromethylphenyl)urea]
78.2 | CCOC(=O)CNc1nc2cnc(N(CCN3CCOCC3)C(=O)Nc3ccc(OC(F)(F)F)cc3)cc2s1 [Example 43]
34.7 | Nc1nc2cnc(N(CCN3CCOCC3)C(=O)Nc3ccc(OC(F)(F)F)cc3)cc2s1 [Example 41, 1-(2-aminothiazo[4,5-c]pyridin-6-yl)-1-[2-(4-morpholinyl)ethyl]-3-(4-trifluoromethoxyphenyl)urea]
32.5 | O=C(NCc1ccccc1)Nc1nc2ncc(N(CCN3CCOCC3)C(=O)Nc3ccc(Br)c(F)c3)cc2s1 [Example 47, 1-[2-(3-benzylureido)thiazo[4,5-b]pyridin-6-yl]-1-[2-(4-morpholinyl)ethyl]-3-(4-bromo-3-fluorophenyl)urea]
45.6 | CC(=O)Nc1nc2ccc(N(CCN3CCOCC3)C(=O)Nc3ccc(C)cc3)cc2o1 [Example 36, 1-(2-acetamidobenzo[d]oxazol-6-yl)-1-[2-(4-morpholinyl)ethyl]-3-(4-methylphenyl)urea]
45.2 | CC(=O)Nc1nc2cnc(N(CCN3CCOCC3)C(=O)Nc3cccnc3)nc2s1 [Example 45, 1-(2-acetamidothiazo[5,4-d]pyrimidin-5-yl)-1-[2-(4-morpholinyl)ethyl]-3-(pyridin-3-yl)urea]
57.2 | Nc1nc2ccc(N(CCN3CCOCC3)C(=O)Nc3ccc(F)cc3)nc2s1 [Example 38, 1-(2-aminothiazo[5,4-b]pyridin-5-yl)-3-(4-fluorophenyl)-1-[2-(4-morpholinyl)ethyl]urea]
10.3 | Cc1ccc(NC(=O)N(CCN2CCOCC2)c2ccc3nc(N)oc3c2)cc1 [Example 35, 1-(2-aminobenzo[d]oxazol-6-yl)-1-[2-(4-morpholinyl)ethyl]-3-(4-methylphenyl)urea]
55.9 | Nc1nc2cnc(N(CCN3CCOCC3)C(=O)Nc3cccnc3)nc2s1 [Example 44, 1-(2-aminothiazo[5,4-d]pyrimidin-5-yl)-1-[2-(4-morpholinyl)ethyl]-3-(pyridin-3-yl)urea]
